The values that follow come from patent publication US4690822A, “Novel drug carrier and pharmaceutical preparation comprising the same” (Fujisawa Pharmaceutical Co., Ltd., priority 1985, dated 1987).

Broadly, the solubility is how much of the substance goes into solution per volume.

Data set [1] is described as follows: Solubility of FK 235 in water. In kind it is physicochemical.
The conditions of data set [2]: fasting state; S.E. 0.7 min.; cited from earlier work.

`COC(=O)C1=C(C#N)NC(C)=C(C(=O)OC(C)C)C1c1cccc([N+](=O)[O-])c1` (centres unmarked) [FK 235, Isopropyl 6-cyano-5-methoxycarbonyl-2-methyl-4-(3-nitrophenyl)-1,4-dihydropyridine-3-carboxylate]: the solubility in data set [1] was under 2 µg/mL.

With `O` [water], the “half-time of the passage of fluid through pylorus” value in data set [2] is 13.1 min.
